# pIC50: −log10 of the molar value.
# Biological target: T1, Neuropeptide Y receptor type 1 (Homo sapiens, UniProt P25929)
# T1 sequence (P25929 whole entry): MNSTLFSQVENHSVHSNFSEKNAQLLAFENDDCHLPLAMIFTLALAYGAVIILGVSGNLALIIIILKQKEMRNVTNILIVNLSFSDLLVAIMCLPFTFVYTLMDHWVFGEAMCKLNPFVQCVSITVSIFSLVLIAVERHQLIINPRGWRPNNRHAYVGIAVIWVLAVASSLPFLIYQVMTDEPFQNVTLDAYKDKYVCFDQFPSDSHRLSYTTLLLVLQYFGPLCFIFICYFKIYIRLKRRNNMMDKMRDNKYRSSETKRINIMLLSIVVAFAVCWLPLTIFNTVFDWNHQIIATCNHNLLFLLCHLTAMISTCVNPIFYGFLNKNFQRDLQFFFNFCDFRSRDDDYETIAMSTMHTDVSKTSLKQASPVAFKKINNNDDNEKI
# Experiment: ChEBML_143683
# From the text: Binding affinity against Neuropeptide Y receptor type 1 using I-PYY as a radioligand in human neuroblastoma SK-N-MC cells
row,pIC50,Compound
1,< 6.00,"COC(=O)C1=C(C)N=C(C)C(C(=O)OC)N1c1cccc(NC(=S)NCCCN2CCC(C(C)(C)C)CC2)c1 (configuration not stated) [1-(3-{3-[3-(4-tert-Butyl-piperidin-1-yl)-propyl]-thioureido}-phenyl)-3,5-dimethyl-1,4-dihydro-pyrazine-2,6-dicarboxylic acid dimethyl ester]"
2,< 6.00,"COC(=O)C1=C(C)N=C(C)C(C(=O)OC)N1c1cccc(NC(=S)NCCCN2CCN(C3CCCCC3)CC2)c1 (configuration not stated) [1-(3-{3-[3-(4-Cyclohexyl-piperazin-1-yl)-propyl]-thioureido}-phenyl)-3,5-dimethyl-1,4-dihydro-pyrazine-2,6-dicarboxylic acid dimethyl ester]"

# From BindingDB's records for doi:10.1016/s0960-894x(01)00765-x (Bristol Myers Squibb, 2002)
